This is an account of results in patent US20220218689A1, “T[…] COMPOSITIONS AND METHODS FOR USING THE SAME” (Saniona A/S, priority 2018, published 2022).

For data set [1] the following is noted: Astrup et al., 2008, Lancet 372: 1906-13; cited from earlier work.
A short description of data set [2]: In vitro skin flux study (Franz cell transdermal flux test). The format is in vitro ADME, human. The note with it: free base; conclusion from the in vitro skin flux study. An excerpt: Human cadaver skin was used and epidermal layers (stratum corneum and epidermis) were separated from the full-thickness skin as skin membrane. Samples were die-cut with an arch punch to a final diameter of about 2.0 cm^2. The release liner was removed and the system was placed on top of the epidermis/stratum corneum with the drug adhesive layer facing the stratum corneum. Gentle pressure was applied to effect good contact between the adhesive layer and stratum corneum. The donor and receptor sides of the Franz cell were clamped together and the receptor solution containing a phosphate buffer at pH 6.5 was added to the Franz cell. The cells were kept at 33° C. for the duration of the experiment. Samples of the receptor solution were taken at regular intervals and the active agent concentration was measured by HPLC. The removed receptor solution was replaced with fresh solution to maintain the sink conditions. The flux was calculated from the slope of cumulative amounts of the drug in the receiver compartment versus time plot.
Transdermal delivery devices containing various formulations of (1 R,2 R,3 S,5 S)-3-(3,4-dichlorophenyl)-2-(methoxymethyl)-8-azabicyclo[3.2.1]octane (i.e., NS2359) are summarized in Table 1. An in vitro skin flux study was performed as described above with transdermal delivery devices having the formulations listed in Table 1. […]

For the compound `CCOC[C@@H]1[C@@H](c2ccc(Cl)c(Cl)c2)C[C@@H]2CC[C@H]1N2C` [Tesofensine, (1 R,2 R,3 S,5 S)-3-(3,4-dichlorophenyl)-2-(ethoxymethyl)-8-methyl-8-azabicyclo[3.2.1]octane], in data set [1], the Sagittal diameter entry was “significantly decreases” and the Waist circumference entry is reported as “significantly decreases”.

With `COC[C@@H]1[C@@H](c2ccc(Cl)c(Cl)c2)C[C@@H]2CC[C@H]1N2` [NS2359, (1 R,2 R,3 S,5 S)-3-(3,4-dichlorophenyl)-2-(methoxymethyl)-8-azabicyclo[3.2.1]octane], in data set [2], the Transdermal deliverability result is listed as “can be delivered transdermally”.
